Test results as given in PMC11360180, “Enhancement of Antimicrobial Function by L/D-Lysine Substitution on a Novel Broad-Spectrum Antimicrobial Peptide, Phylloseptin-TO2: A Structure-Related Activity Research Study” (Pharmaceutics, 2024).
Where “and” joins values, the source holds several entries; their conditions need not be identical. Equal values may be shown once. Read-outs that look alike come from different tables or passages of the source. Where a SMILES comes first, the peptide text is derived from it. Where no end group is shown, it is not given here. [ ]: non-standard residue; d: D form.

Tests used:
S. aureus (ATCC 6538) = assay type: cell-based, Staphylococcus aureus
Excerpt: (§1) Seven microorganism strains were used to preliminarily evaluate the antimicrobial activity of PSTO2 and its analogues, including Staphylococcus aureus (S. aureus) (ATCC® 6538), methicillin-resistant Staphylococcus aureus (MRSA) (NCTC® 12493), Enterococcus faecalis (E. faecalis) (NCTC® 12697), E. coli (ATCC® 8739), Klebsiella pneumonia (K. pneumonia) (ATCC® 43816), Pseudomonas aeruginosa (P. aeruginosa) (ATCC® CRM 9027), Acinetobacter baumanni (A. baumanni) (BAA® 747), and Candida albicans (C. albicans) (ATCC® 10231). In this study, the strains were cultured in Mueller–Hinton broth (MHB), nutrient broth (NB), and yeast–peptone–dextrose broth (YPD-B) correspondingly at 37 °C, with shaking at 120 rpm. Each peptide was dissolved from 128 μM to 1 μM and mixed with the bacterium at 5 × 10^5 CFU/mL. In this process, bacteria with culture medium were used as the growth control group; PBS was set up as the vehicle control group; sterile culture medium was used as the blank control group; and Norfloxacin at a concentration of 2 mg/mL and amphotericin B at a concentration of 1 mg/mL were set up as the positive control group for bacteria and fungi, respectively.
(§2) After being incubated for 24 h, a Synergy HT plate reader (Bio-Tek, Shoreline, WA, USA) was used to detect the absorbance of each well in the 96-well plate at λ = 550 nm. The concentration at which no visible turbidity could be recorded was the MIC value. Beginning from the MIC value, 10 µL of solution in each clear well was dropped on the sterile agar plates. The plate was checked the next day for colony formation, and the lowest concentration at which no colony growing was recorded as an MBC value.

MRSA (NCTC 12493) = assay type: cell-based, methicillin-resistant Staphylococcus aureus
Excerpt: as §1, §2

[1] = tested on: K. pneumonia (ATCC 43816); assay type: cell-based, Klebsiella pneumonia
Excerpt: as §1, §2

E. coli (ATCC 8739) = assay type: cell-based, Escherichia coli
Excerpt: as §1, §2

[2] = tested on: P. aeruginosa (ATCC 9027); assay type: cell-based, Pseudomonas aeruginosa
Excerpt: as §1, §2

A. baumannii (BAA 747) = assay type: cell-based, Acinetobacter baumanni; details: BAA 747, 24 h
Excerpt: as §1, §2

horse red blood cells = assay type: cell-based
Method: To assess the haemolytic activity of PSTO2 and its analogues, 2% fresh defibrinated horse red blood cells (TCS Biosciences Ltd., Buckingham, UK) were acquired after being washed and resuspended in sterile PBS. Each peptide was dissolved in PBS to prepare solutions with concentrations ranging from 2 µM to 1024 µM. Subsequently, 100 µL of each peptide solution was mixed with 100 µL of the red blood cell suspension. The red blood cells treated with 1% triton X-100 and sterile PBS in equivalent volumes were set up as the positive and negative control groups, respectively. Then, all the samples were incubated at 37 °C for 2 h. Thereafter, the samples were centrifuged at 900× g for 10 min. Finally, 100 µL of supernatant of each sample was transferred into a 96-well plate, and the absorbance was recorded by a Synergy HT plate reader (Bio-Tek, Shoreline, WA, USA) at a wavelength of 570. The following equation was used to calculate haemolysis activity:Haemolysis activity = (Sample absorbance − Ab)/(Ap − Ab) × 100% where Ab refers to the mean value of absorbance of the negative control (incubated with PBS only), and Ap refers to the mean absorbance value of the positive control (incubated with triton X-100).

C. albicans = assay type: cell-based, Candida albicans; details: 24 h
Excerpt: as §1, §2

[3] = tested on: S. aureus (ATCC 6538) biofilm; assay type: cell-based, Staphylococcus aureus; details: ATCC 6538, 24 h
Method: (§3) To test the anti-biofilm ability of PSTO2 and its analogues, three types of microorganisms (S. aureus ATCC® 6538, E. coli ATCC® 8739, and MRSA NCTC® 12493) were chosen. Tryptic soy broth (TSB) and Lysogeny broth (LB) were used to culture microorganisms. The peptide was dissolved in an autoclaved PBS solution and diluted into concentrations ranging from 51,200 µM to 100 µM. One µL of peptide solution of each concentration was added into a 96-well plate with 100 µL bacterium at 5 × 10^5 CFU/mL. The plate was incubated at 37 °C for 24 h, with shaking at 200 rpm. After overnight incubation, the planktonic bacteria were washed up. Then, 100 µL of methanol was used to fix the biofilms onto the bottom, and 100 µL of 0.1% crystal violet solution (Sigma-Aldrich, Gillingham, UK) was added to each well to stain the biofilms. After drying, 160 µL of acetic acid (30% in deionised water, Sigma-Aldrich, UK) was added to each well to dissolve the shaded parts. The absorbance was detected with the Synergy HT plate reader at λ = 595 nm.
(§4) For the MBEC assay, 100 µL of the bacterium of 5 × 10^5 CFU/mL was transferred into an empty 96-well plate, and the plate was incubated at 37 °C for 24 h to obtain the biofilms primarily. Then, the peptide solution from 512 µM to 1 µM was transferred into a corresponding well, followed by 24 h incubation at 37 °C, with shaking at 200 rpm. After this, the plate was handled using the identical method to the plate in the MBIC assay, and the absorbance of each well was detected with the Synergy HT plate reader at λ = 595 nm. The minimum concentration at which the peptide can eradicate the existing biofilm was recorded as the MBEC value.

[4] = tested on: MRSA (ATCC 12493) biofilm; assay type: cell-based, methicillin-resistant Staphylococcus aureus; details: ATCC 12493, 24 h
Method: as §3, §4

[5] = tested on: E. coli (ATCC 8739) biofilm; assay type: cell-based, Escherichia coli; details: ATCC 8739, 24 h
Method: as §3, §4

[6] = clear wells plated on agar, no colony

Row | Compound | MBC (S. aureus (ATCC 6538); ATCC 6538, 24 h) | MIC (S. aureus (ATCC 6538); ATCC 6538, 24 h) | MBC (A. baumannii (BAA 747)) | MIC (A. baumannii (BAA 747)) | HC10 (horse red blood cells) | MBC (MRSA (NCTC 12493); NCTC 12493, 24 h) | MIC (MRSA (NCTC 12493); NCTC 12493, 24 h) | MBC (C. albicans) | MIC (C. albicans) | MBC ([1]; ATCC 43816, 24 h) | MIC ([1]; ATCC 43816, 24 h) | MBC (E. coli (ATCC 8739); ATCC 8739, 24 h) | MIC (E. coli (ATCC 8739); ATCC 8739, 24 h) | MBC ([2]; ATCC 9027, 24 h) | MIC ([2]; ATCC 9027, 24 h) | MBEC [3] | MBIC [3] | MBEC [4] | MBIC [4] | MBEC [5] | other results
1 | CC[C@H](C)[C@H](NC(=O)CN)C(=O)NCC(=O)N[C@@H](C)C(=O)N[C@H](C(=O)N[C@@H](CC(C)C)C(=O)N[C@@H](CCCCN)C(=O)N[C@H](C(=O)N[C@@H](CC(C)C)C(=O)N[C@H](C(=O)N[C@H](C(=O)NCC(=O)N[C@@H](CC(C)C)C(=O)N1CCC[C@H]1C(=O)N[C@@H](C)C(=O)N[C@@H](CC(C)C)C(=O)N[C@H](C(=O)N[C@@H](CO)C(=O)N[C@@H](Cc1c[nH]c2ccccc12)C(=O)N[C@H](C(=O)N[C@@H](CCCCN)C(=O)N[C@@H](CCCNC(=N)N)C(=O)N[C@@H](CCCCN)C(=O)N[C@@H](CCCNC(=N)N)C(=O)N[C@@H](CCC(N)=O)C(=O)N[C@@H](CCC(N)=O)C(N)=O)[C@@H](C)CC)[C@@H](C)CC)[C@@H](C)O)[C@@H](C)O)C(C)C)C(C)C [Mellitin, melittin, reference compound] | – | – | – | – | – | – | – | – | – | – | – | – | – | – | – | – | – | – | – | – | MBC (S. aureus (ATCC 6538); [6]): 5.7 µg/mL and 2 µM; MBC (MRSA (NCTC 12493); [6]): 2 µM; MIC ([1]; 5 × 10^5 CFU/mL, 24 h, absorbance 550 nm): 32 µM; MBC [1, 6]: 32 µM; MBC (E. coli (ATCC 8739); [6]): 4 µM; MBC [2, 6]: 32 µM
2 | CC[C@H](C)[C@H](NC(=O)[C@H](C)NC(=O)[C@@H](CCCCN)NC(=O)[C@@H]1CCCN1C(=O)[C@@H](NC(=O)[C@H](CC(C)C)NC(=O)[C@H](CO)NC(=O)[C@H](CC(C)C)NC(=O)[C@@H](N)Cc1ccccc1)[C@@H](C)CC)C(=O)N[C@H](CCCCN)C(=O)N[C@@H](C)C(=O)N[C@H](C(=O)N[C@@H](CO)C(=O)N[C@@H](C)C(=O)N[C@@H](CC(C)C)C(=O)N[C@@H](C)C(=O)N[C@@H](CCCCN)C(=O)N[C@H](CCCCN)C(=O)N[C@@H](CC(C)C)C(N)=O)C(C)C [Peptide D1] (H-FLSLIP[dK]AI[dK]AVSALAK[dK]L-NH2) | >128 µM | >128 µM | 32 µM | 32 µM | Not significant | >128 µM | >128 µM | >128 µM | >128 µM | 128 µM | 128 µM | 32 µM | 32 µM | 32 µM | 32 µM | – | – | – | – | – | –
3 | FLSLIPKAISAVSALAKHL-NH2 [Peptide 7K] | 4 µM | 4 µM | >128 µM | >128 µM | 21.97 | 8 µM | 4 µM | 64 µM | 32 µM | 8/8 μM | – | 8 µM | 8 µM | 32 µM | 32 µM | 32 µM | 16 µM | 32 µM | 4 µM | 64 µM | MBIC [5]: 16 µM
4 | FLSLIPKAISAVSALAKKL-NH2 [Peptide 18K] | 4 µM | 2 µM | 32/32 μM | – | 20.59 | 4 µM | 4 µM | 128 µM | 32 µM | 16/16 μM | – | 4/4 μM | – | 64 µM | 32 µM | 32 µM | 8 µM | 32 µM | 4 µM | 64 µM | MBIC [5]: 32 µM
5 | CC[C@H](C)[C@H](NC(=O)[C@H](C)NC(=O)[C@@H](CCCCN)NC(=O)[C@@H]1CCCN1C(=O)[C@@H](NC(=O)[C@H](CC(C)C)NC(=O)[C@H](CO)NC(=O)[C@H](CC(C)C)NC(=O)[C@@H](N)Cc1ccccc1)[C@@H](C)CC)C(=O)N[C@H](CCCCN)C(=O)N[C@@H](C)C(=O)N[C@H](C(=O)N[C@H](CCCCN)C(=O)N[C@@H](C)C(=O)N[C@@H](CC(C)C)C(=O)N[C@@H](C)C(=O)N[C@H](CCCCN)C(=O)N[C@H](CCCCN)C(=O)N[C@@H](CC(C)C)C(N)=O)C(C)C [Peptide D2] (H-FLSLIP[dK]AI[dK]AV[dK]ALA[dK][dK]L-NH2) | >128 µM | >128 µM | 16 µM | 16 µM | Not significant | >128 µM | >128 µM | >128 µM | >128 µM | 128 µM | 128 µM | 32 µM | 16 µM | 16 µM | 16 µM | – | – | – | – | – | –
